Conditions: 101.33 kPa, Liquid; for viscosity: Capillary tube (Ostwald / Ubbelohde) method; for mass density: Vibrating tube method

CCCCC(CC)COP(=O)(O)OCC(CC)CCCC (stereo not given) [bis(2-ethylhexyl) hydrogen phosphate]
Conditions | mass density [kg/m3] | viscosity [mPa·s]
303.15 K | 964 | 21.22
313.15 K | 957 | 13.32
323.15 K | 949.5 | 8.559
333.15 K | 942 | 5.83
343.15 K | 934.5 | 4.089

From the NIST ThermoML archive (doi:10.1021/je0496645)
